In patent publication US8563729B2, “Thienopyridone derivatives as AMP-activated protein kinase (AMPK) activators” (Merck Patent GmbH, priority 2008, dated 2013):

biological target: T1, AMPK protein (recombinant α1β1γ2) (Homo sapiens, UniProt Q13131+Q9Y478); experiment: AMPK enzymatic activity (Delfia, AMARA peptide substrate); format: biochemical; conditions: compound 30 μM vs AMP 30 μM; 125 μM ATP; ratio 90% or higher = direct activator
T1 construct: made in house; host or cells: E. coli
Procedure: The following biological test allows the determination of the efficacy of such compounds of formula (I) onto AMPK protein (recombinant α1β1γ2).
Human recombinant AMPK enzyme was expressed in E. Coli and was reactivated in vitro by LKB1 prior to enzyme activity determination.
AMPK enzyme activities were assayed by using A Delfia technology. AMPK enzyme activities were carried out in microtiter plates (50 mM Hepes buffer, pH 7.4 with 125 μM ATP respectively) in the presence of a synthetic peptide substrate (AMARAASAAALARRR, the “AMARA” peptide) and activators in serial dilutions. Reactions were initiated by the addition of AMPK (50-100 ng). Following mixing, the plates were incubated for 30 min at room temperature. Enzyme activity was assayed by using an anti-phosphoserine antibody to measure the quantity of phosphate incorporated into the AMARAA.
N°: Number of the molecule
Activity: Ratio between the % of control (basal activity) of compound of formula (I) at 30 μM and the % of control (basal activity) of AMP (natural substrate) at 30 μM.
Compounds of formula (I) in the table II are considered as direct activator of AMPK if the ratio is 90% or higher.

T1 sequence (Q13131 whole entry): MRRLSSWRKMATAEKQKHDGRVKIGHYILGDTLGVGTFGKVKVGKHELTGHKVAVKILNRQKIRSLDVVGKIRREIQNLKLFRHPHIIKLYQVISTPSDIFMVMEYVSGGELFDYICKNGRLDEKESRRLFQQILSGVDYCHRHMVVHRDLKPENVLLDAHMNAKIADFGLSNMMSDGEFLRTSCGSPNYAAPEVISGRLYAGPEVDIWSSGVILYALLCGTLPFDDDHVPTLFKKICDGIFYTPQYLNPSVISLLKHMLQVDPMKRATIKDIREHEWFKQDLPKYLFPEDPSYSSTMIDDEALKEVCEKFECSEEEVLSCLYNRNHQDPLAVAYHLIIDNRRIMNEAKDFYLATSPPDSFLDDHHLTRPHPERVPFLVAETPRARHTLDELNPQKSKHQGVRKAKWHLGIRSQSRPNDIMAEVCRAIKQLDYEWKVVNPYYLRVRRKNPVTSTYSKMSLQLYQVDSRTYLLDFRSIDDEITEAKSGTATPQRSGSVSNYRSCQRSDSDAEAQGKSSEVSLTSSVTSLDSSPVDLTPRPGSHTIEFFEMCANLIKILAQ
T1 sequence (Q9Y478 whole entry): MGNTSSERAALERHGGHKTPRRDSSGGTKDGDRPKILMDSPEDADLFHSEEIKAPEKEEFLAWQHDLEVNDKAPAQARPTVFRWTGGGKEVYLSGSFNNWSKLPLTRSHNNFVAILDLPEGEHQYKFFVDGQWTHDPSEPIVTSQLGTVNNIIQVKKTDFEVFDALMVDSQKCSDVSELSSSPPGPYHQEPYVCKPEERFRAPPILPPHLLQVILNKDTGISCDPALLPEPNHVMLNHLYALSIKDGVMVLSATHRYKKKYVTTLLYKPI
T1 sequence (Q9UGJ0 whole entry partner): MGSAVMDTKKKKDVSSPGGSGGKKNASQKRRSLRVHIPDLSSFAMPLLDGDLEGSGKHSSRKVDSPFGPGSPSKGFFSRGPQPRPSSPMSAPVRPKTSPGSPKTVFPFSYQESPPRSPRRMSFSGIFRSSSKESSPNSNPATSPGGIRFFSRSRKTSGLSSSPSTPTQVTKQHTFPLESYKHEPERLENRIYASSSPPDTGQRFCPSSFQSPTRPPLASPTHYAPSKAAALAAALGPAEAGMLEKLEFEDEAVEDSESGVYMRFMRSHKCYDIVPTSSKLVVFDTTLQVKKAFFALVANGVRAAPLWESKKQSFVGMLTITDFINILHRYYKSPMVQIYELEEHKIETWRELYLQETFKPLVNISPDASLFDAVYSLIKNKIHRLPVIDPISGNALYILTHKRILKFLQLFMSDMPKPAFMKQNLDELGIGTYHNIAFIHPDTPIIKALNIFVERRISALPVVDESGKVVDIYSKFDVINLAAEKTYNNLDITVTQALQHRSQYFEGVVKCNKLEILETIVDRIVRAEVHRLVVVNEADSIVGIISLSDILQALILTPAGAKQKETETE

SMILES	activity: Ratio between the % of control (basal activity) of compound of formula (I) at 30 μM and the % of control (basal activity) of AMP at 30 μM
O=C(O)c1sc2[nH]c(=O)c(-c3ccccc3)c(O)c2c1-c1ccccc1 [Compound 3]	102%
O=c1[nH]c2scc(-c3ccccc3)c2c(O)c1-c1ccccc1 [Compound 16]	107%
O=c1[nH]c2scc(-c3ccc(Br)cc3)c2c(O)c1-c1ccccc1 [Compound 25]	119%
O=c1[nH]c2scc(-c3ccc(Br)cc3)c2c(O)c1-c1cccnc1 [Compound 28]	109%
O=c1[nH]c2scc(-c3ccc(Br)cc3)c2c(O)c1-c1ccncc1 [Compound 29]	103%
COc1ccc(-c2csc3[nH]c(=O)c(-c4ccccc4)c(O)c23)cc1 [Compound 32]	147%
O=c1[nH]c2scc(-c3ccc(CO)cc3)c2c(O)c1-c1ccccc1 [Compound 38]	119%
COc1ccc(-c2c(O)c3c(-c4ccc(OC)cc4)csc3[nH]c2=O)cc1 [Compound 40]	109%
O=c1[nH]c2scc(-c3ccc(O)cc3)c2c(O)c1-c1ccc(O)cc1 [Compound 41]	92%
COc1ccc(-c2csc3[nH]c(=O)c(-c4ccc(F)cc4)c(O)c23)cc1 [Compound 42]	110%
COc1ccc(-c2c(O)c3c(-c4ccc(F)cc4)csc3[nH]c2=O)cc1 [Compound 44]	98%
O=c1[nH]c2scc(-c3ccc(F)cc3)c2c(O)c1-c1ccc(O)cc1 [Compound 45]	114%
O=c1[nH]c2scc(-c3cccc(O)c3)c2c(O)c1-c1ccccc1 [Compound 48]	109%
O=c1[nH]c2scc(-c3cccc(F)c3)c2c(O)c1-c1ccccc1 [Compound 49]	131%
Cc1cccc(-c2csc3[nH]c(=O)c(-c4ccccc4)c(O)c23)c1 [Compound 50]	103%
O=c1[nH]c2scc(-c3cccc(CO)c3)c2c(O)c1-c1ccccc1 [Compound 52]	176%
O=c1[nH]c2scc(-c3ccccc3O)c2c(O)c1-c1ccccc1 [Compound 55]	146%
O=c1[nH]c2scc(-c3ccccc3F)c2c(O)c1-c1ccccc1 [Compound 56]	107%
O=c1[nH]c2scc(-c3ccccc3Cl)c2c(O)c1-c1ccccc1 [Compound 58]	103%
COc1ccc(-c2csc3[nH]c(=O)c(-c4ccccc4)c(O)c23)c(OC)c1 [Compound 60]	100%
O=c1[nH]c2scc(-c3ccc(O)cc3O)c2c(O)c1-c1ccccc1 [Compound 61]	146%
O=c1[nH]c2scc(-c3ccc(O)cc3F)c2c(O)c1-c1ccccc1 [Compound 62]	101%
O=c1[nH]c2scc(-c3ccc(F)cc3F)c2c(O)c1-c1ccccc1 [Compound 64]	109%
O=c1[nH]c2scc(-c3ccc(F)cc3O)c2c(O)c1-c1ccccc1 [Compound 66]	144%

SMILES	activity: Ratio between the % of control (basal activity) of compound of formula (I) at 30 μM and the % of control (basal activity) of AMP at 30 μM
O=c1[nH]c2scc(-c3cc(O)cc(O)c3)c2c(O)c1-c1ccccc1 [Compound 68]	96%
COc1ccc(-c2csc3[nH]c(=O)c(-c4ccccc4)c(O)c23)cc1F [Compound 71]	131%
O=c1[nH]c2scc(-c3ccc(O)c(F)c3)c2c(O)c1-c1ccccc1 [Compound 72]	150%
COc1cc(-c2csc3[nH]c(=O)c(-c4ccccc4)c(O)c23)ccc1Br [Compound 73]	94%
O=c1[nH]c2scc(-c3ccc(Br)c(O)c3)c2c(O)c1-c1ccccc1 [Compound 74]	112%
O=c1[nH]c2scc(-c3cc(F)ccc3O)c2c(O)c1-c1ccccc1 [Compound 75]	135%
O=c1[nH]c2scc(-c3ccc(Br)cc3O)c2c(O)c1-c1ccccc1 [Compound 77]	257%
O=c1[nH]c2scc(-c3c(F)cccc3F)c2c(O)c1-c1ccccc1 [Compound 78]	160%
COc1ccc(O)c(-c2csc3[nH]c(=O)c(-c4ccccc4)c(O)c23)c1 [Compound 79]	593%
COc1ccc(-c2csc3[nH]c(=O)c(-c4ccccc4)c(O)c23)c(O)c1 [Compound 81]	223%
COc1cc(-c2csc3[nH]c(=O)c(-c4ccccc4)c(O)c23)ccc1C [Compound 84]	158%
Cc1ccc(-c2csc3[nH]c(=O)c(-c4ccccc4)c(O)c23)cc1O [Compound 85]	406%
Cc1ccc(-c2csc3[nH]c(=O)c(-c4cccc(C#N)c4)c(O)c23)c(O)c1 [Compound 87]	287%
COc1cc(C)ccc1-c1c(Cl)sc2[nH]c(=O)c(-c3ccccc3)c(O)c12 [Compound 105]	206%
O=c1[nH]c2sc(Cl)c(-c3c(F)cccc3F)c2c(O)c1-c1ccccc1 [Compound 106, 2-chloro-3-(2,6-diflurophenyl)-4-hydroxy-5-phenyl-6,7-dihydro-thieno[2,3-b]pyridin-6-one]	115%
COc1ccc(-c2c(Cl)sc3[nH]c(=O)c(-c4ccccc4)c(O)c23)cc1F [Compound 110]	121%
O=c1[nH]c2sc(Cl)c(-c3cc(Cl)c(O)cc3F)c2c(O)c1-c1ccccc1 [Compound 113]	95%
O=c1[nH]c2sc(Cl)c(-c3ccc(F)cc3F)c2c(O)c1-c1ccccc1 [Compound 114]	115%
O=c1[nH]c2sc(Cl)c(-c3ccc(O)cc3F)c2c(O)c1-c1ccccc1 [Compound 116]	120%
O=c1[nH]c2sc(Cl)c(-c3cccc(CO)c3)c2c(O)c1-c1ccccc1 [Compound 124]	195%
O=C(O)c1cccc(-c2c(O)c3c(-c4ccc(F)cc4)c(Cl)sc3[nH]c2=O)c1 [Compound 130]	117%
O=c1[nH]c2sc(Cl)c(-c3ccc(O)cc3)c2c(O)c1-c1ccc(F)cc1 [Compound 132]	108%
CCCCc1ccc(-c2c(Cl)sc3[nH]c(=O)c(-c4ccccc4)c(O)c23)cc1 [Compound 134]	93%
Cc1ccc(-c2c(Cl)sc3[nH]c(=O)c(-c4ccccc4)c(O)c23)cc1 [Compound 135]	113%
